ChEMBL document CHEMBL5038616, “Synthesis and biological evaluation of N, N-dialkylcarboxy coumarin-NO donor conjugates as potential anticancer agents” (Bioorg Med Chem Lett, 2021)
Calls of active or inactive are those of the source. The rule behind the calls is not given here.

Key:
MDA-MB-231 [1] = test: Antiproliferative activity against human MDA-MB-231 cells assessed as inhibition of cell proliferation by MTT assay; assay type: functional, cell-based
4T1 = test: Antiproliferative activity against mouse 4T1 cells assessed as inhibition of cell proliferation by MTT assay; assay type: functional, cell-based
WiDr = test: Antiproliferative activity against human WiDr cells assessed as inhibition of cell proliferation by MTT assay; assay type: functional, cell-based
[2] = Cytotoxicity against human HDFa cells assessed as inhibition of cell proliferation by MTT assay; assay type: toxicity, cell-based
MDA-MB-231 [3] = test: Induction of NO production in human MDA-MB-231 cells assessed as nitrite level at 100 uM by Griess reagent based assay; assay type: functional, cell-based
MDA-MB-231 [4] = test: Induction of NO production in human MDA-MB-231 cells assessed as increase in NO fluorescence at 50 nM treated with DAF-DM diacetate for 30 mins and measured after 2 hrs incubation by confocal microscopic analysis; assay type: functional, cell-based
[5] = Cytotoxicity against human MCF-10A cells assessed as inhibition of cell proliferation by MTT assay; assay type: toxicity, cell-based
MDA-MB-231 [6] = test: Inhibition of colony formation in human MDA-MB-231 cells assessed as reduction in colony formation at 1 to 3 nM relative to control; assay type: functional, cell-based; details: dose 1-3 nM
MDA-MB-231 [7] = test: Induction of apoptosis in human MDA-MB-231 cells assessed as viable cells at 10 nM by annexin V-FITC and PI staining based flow cytometry method (reference value: 93.2 %); assay type: functional; details: read-out: Activity
MDA-MB-231 [8] = test: Induction of apoptosis in human MDA-MB-231 cells assessed as early apoptotic cells at 10 nM by annexin V-FITC and PI staining based flow cytometry method (reference value: 1.92 %); assay type: functional
MDA-MB-231 [9] = test: Induction of apoptosis in human MDA-MB-231 cells assessed as late apoptotic cells at 10 nM by annexin V-FITC and PI staining based flow cytometry method (reference value: 2.02 %); assay type: functional
MDA-MB-231 [10] = test: Induction of apoptosis in human MDA-MB-231 cells assessed as necrotic cells at 10 nM by annexin V-FITC and PI staining based flow cytometry method(reference value: 2.88 %); assay type: functional
MDA-MB-231 [11] = test: Induction of apoptosis in human MDA-MB-231 cells assessed as viable cells at 25 nM by annexin V-FITC and PI staining based flow cytometry method (reference value: 93.2 %); assay type: functional; details: read-out: Activity
MDA-MB-231 [12] = test: Induction of apoptosis in human MDA-MB-231 cells assessed as early apoptotic cells at 25 nM by annexin V-FITC and PI staining based flow cytometry method (reference value: 1.92 %); assay type: functional
MDA-MB-231 [13] = test: Induction of apoptosis in human MDA-MB-231 cells assessed as late apoptotic cells at 25 nM by annexin V-FITC and PI staining based flow cytometry method (reference value: 2.02 %); assay type: functional
MDA-MB-231 [14] = test: Induction of apoptosis in human MDA-MB-231 cells assessed as necrotic cells at 25 nM by annexin V-FITC and PI staining based flow cytometry method (reference value: 2.88 %); assay type: functional
MDA-MB-231 [15] = test: Induction of apoptosis in human MDA-MB-231 cells assessed as viable cells at 50 nM by annexin V-FITC and PI staining based flow cytometry method (reference value: 93.2 %); assay type: functional; details: read-out: Activity
MDA-MB-231 [16] = test: Induction of apoptosis in human MDA-MB-231 cells assessed as early apoptotic cells at 50 nM by annexin V-FITC and PI staining based flow cytometry method (reference value: 1.92 %); assay type: functional
MDA-MB-231 [17] = test: Induction of apoptosis in human MDA-MB-231 cells assessed as late apoptotic cells at 50 nM by annexin V-FITC and PI staining based flow cytometry method (reference value: 2.02 %); assay type: functional
MDA-MB-231 [18] = test: Induction of apoptosis in human MDA-MB-231 cells assessed as necrotic cells at 50 nM by annexin V-FITC and PI staining based flow cytometry analysis (reference value: 2.88 %); assay type: functional
MDA-MB-231 [19] = test: Cell cycle arrest in human MDA-MB-231 cells assessed as accumulation of cells at G0/G1 phase at 20 nM by PI staining based flow cytometry method; assay type: functional
[20] = Toxicity in […] mouse xenografted with human MDA-MB-231 cells assessed as body weight loss at 20 mg/kg, ip dosed once daily for 14 days relative to control; assay type: organism-based; details: in vivo, 336 h, time 14 day
MDA-MB-231 [21] = test: Antitumor activity against human MDA-MB-231 cells xenografted in NOD-SCID mouse assessed as reduction in tumor volume at 20 mg/kg, ip measured for every 2 to 3 days; assay type: functional; design: scale not given: the % may be the effect or the level left; details: time 2-3 day
MDA-MB-231 [22] = test: Antitumor activity against human MDA-MB-231 cells xenografted in NOD-SCID mouse assessed as reduction in tumor mass at 20 mg/kg, ip measured for every 2 to 3 days; assay type: functional; design: scale not given: the % may be the effect or the level left; details: time 2-3 day

| SMILES | IC50 (MDA-MB-231 [1]) [µM] | IC50 (4T1) [µM] | IC50 (WiDr) [µM] | IC50 [2] [µM] | Activity (MDA-MB-231 [3]) | Activity (MDA-MB-231 [4]) | IC50 [5] [µM] | also measured |
| --- | --- | --- | --- | --- | --- | --- | --- | --- |
| CCN(CC)c1ccc2cc(C(=O)OCCOc3no[n+]([O-])c3S(=O)(=O)c3ccccc3)c(=O)oc2c1 | 3.6 | 1.3 | 2.2 | 1.48 | Active | Active | – | – |
| CCN(CC)c1ccc2cc(C(=O)OCCO)c(=O)oc2c1 | > 100 | > 100 | > 100 | – | – | – | > 100 | – |
| O=C(O)c1cc2ccc(N(Cc3ccccc3)Cc3ccccc3)cc2oc1=O | > 100 | > 100 | > 100 | – | – | – | > 100 | – |
| O=C(OCCO)c1cc2ccc(N(Cc3ccccc3)Cc3ccccc3)cc2oc1=O | > 100 | > 100 | > 100 | – | – | – | > 100 | – |
| O=C(c1cc2ccc(N(Cc3ccccc3)Cc3ccccc3)cc2oc1=O)N1CCN(CCOc2no[n+]([O-])c2S(=O)(=O)c2ccccc2)CC1 | 0.46 | 0.96 | 10 | 5.31 | inactive | Active | 8.6 | – |
| O=C(OCCOc1no[n+]([O-])c1S(=O)(=O)c1ccccc1)c1cc2ccc(N(Cc3ccccc3)Cc3ccccc3)cc2oc1=O | 0.02 | 0.13 | 0.03 | 1.48 | – | Active | 34 | IC50 (MDA-MB-231 [3]): Active; Activity (MDA-MB-231 [6]): Dose-Dependent Effect; viability at 0.01 µM (MDA-MB-231 [7]): 90.9%; Activity (MDA-MB-231 [8]): 2.04%; Activity (MDA-MB-231 [9]): 5.7%; Activity (MDA-MB-231 [10]): 1.36%; viability at 0.025 µM (MDA-MB-231 [11]): 75.9%; Activity (MDA-MB-231 [12]): 3.04%; Activity (MDA-MB-231 [13]): 19.4%; Activity (MDA-MB-231 [14]): 1.65%; viability at 0.05 µM (MDA-MB-231 [15]): 60.8%; Activity (MDA-MB-231 [16]): 4.8%; Activity (MDA-MB-231 [17]): 32.9%; Activity (MDA-MB-231 [18]): 1.47%; Activity (MDA-MB-231 [19]): Active; Activity [20]: Non-Toxic; Activity (MDA-MB-231 [21]): 48%; Activity (MDA-MB-231 [22]): 35% |
